Reference: patent US5399586A, “Treatment of mammals afflicted with tumors with compounds having RXR retinoid receptor agonist activity” (Allergan, Inc., priority 1993, dated 1995)
Like-named read-outs stand apart in the source and are kept apart here.

Assays:
HL-60 cdm-1 cells [1] = test: Assay 2: DNA fragmentation (laddering) in HL-60 cdm-1 cells; assay type: cell-based, human; details: 1 μM, 48 hours; 1% agarose gel
Experimental: HL-60 cdm-1 cells were placed in a T-25 tissue culture flask in 8 ml of media (RPMI-1640 containing bovine insulin 5 mg/L, human transferin 5 mg/L and Na Selenite 5 μg/L) at a density of 2×10^5 cells/ml. AGN 191701 (Compound 1) was added to a final concentration of 1 μM (8 μl of a 1 mM stock solution) and the cells were cultured in a humidified incubator (5% CO2) at 37° C. in the dark for 48 hours. The media and cells were removed from the flask, the cells were pelleted (1100 rpm/7 min Beckman desk top centrifuge), the pellet was washed once with phosphate buffered saline (PBS) and then the pelleted cells were lysed by the addition of 200 μl of a solution containing 20 mM Tris-HCl pH 7.4, 0.4 mM EDTA, 0.4% Triton X-100. The lysate was centrifuged for 5 minutes in a microfuge (14,000 rpm) and the supernatant adjusted to a final concentration of 0.5M NaCl and 50% isopropanol. The solution was allowed to precipitate overnight at -20° C. and the precipitate that formed was pelleted in a microfuge (10 min, 14,000 rpm). The pellet was washed once in 70% ethanol, it was resuspended in 50 μl Tris EDTA (10 mM Tris HCl ph 7.4, 0.4 mM EDTA) and mixed with gel loading buffer. […] DNA was detected by ethidium bromide staining followed by visualization and photography under a UV lamp.

[2] = system: chimeric RARγ receptor protein; test: Cationic Liposome Mediated Transfection Assay, RARγ; assay type: cell-based; details: Table 1; 50% of maximum CAT activity of all-trans retinoic acid; HeLa cells
Experimental: (§1) The above-mentioned Cationic Liposome Mediated Transfection Assay assay by which the activity of a test compound as a potential agonist of the RXR and RAR receptor sites is determined, is performed substantially as reported by Feigner P. L. and Holm M. (1989) Focus, 11-2, and is described below first in principle and thereafter in the form of specific instructions how to perform the assay.
(§2) In connection with this assay it is known that retinoic acid receptors arena member of the steroid/thyroid receptor super family and that they contain domains which are interchangeable within individual receptors. Thus, plasmids for chimeric retinoid receptors containing estrogen DNA binding domain and estrogen response element chloramphenicol acetyl-transferase enzyme are constructed and are grown in specific cultured bacteria. These plasmids respectively code for chimeric RARα, RARβ, RARγ, RXRα receptor proteins, and for the chloramphenicol acetyl A transferase (CAT) enzyme protein. The bacteria with these plasmids are obtainable in accordance with the procedure set forth in the article titled "Nuclear Retinoic Acid Receptors: Cloning, Analysis, and Function", M. Pfahl et al , Methods in Enzymology 189, p 256-270 (1990) which is incorporated herein by reference. The detailed procedure how to isolate the DNA plasmids from the respective bacteria is also set forth below in detail, in the form of specific instructions under the title "Supercoiled Plasmid Isolation".
(§3) Thus, in accordance with the test procedure, DNA plasmid which codes for one of the chimeric RARα, RARβ, RARγ, or RXRα receptor proteins is transfected into cultures of HeLa cells. […] As is known and will be readily understood by those skilled in the art, especially in view of the above-cited M. Pfahl et al. article, chimeric retinoid receptors involved in this assay include a ligand binding domain which recognizes and binds specific agonist molecules, such as retinoic acid and analogs. […]

HL-60 cdm-1 cells [3] = test: Assay 1: HL-60 cdm-1 cell count and microscopy after 72 hours; assay type: cell-based, human; details: 1 uM; for cell counts: control 5.1 × 10^+5 / ml; for inspection of microscope slides: versus control
Text: Sedimented cells were air dried, fixed in absolute methanol, stained with a Diff-quick reagent kit, mounted in Permount and visualized by brightfield light microscopy.

[4] = system: chimeric RXRα receptor protein; test: Cationic Liposome Mediated Transfection Assay, RXRα; assay type: cell-based
Experimental: as §1, §2
Thus, in accordance with the test procedure, DNA plasmid which codes for one of the chimeric RARα, RARβ, RARγ, or RXRα receptor proteins is transfected into cultures of HeLa cells. It is for this purpose that HeLa cells are grown in a medium during the first day of the assay detailed below as the "Cationic Liposome Mediated Transfection Assay". In the transfection procedure, which is performed during the second day of the transfection assay, the DNA plasmid coding for the CAT enzyme is also added to each cell culture, in addition to the respective chimeric RARα, or RARβ etc. coding plasmid. As is known and will be readily understood by those skilled in the art, especially in view of the above-cited M. Pfahl et al. article, chimeric retinoid receptors involved in this assay include a ligand binding domain which recognizes and binds specific agonist molecules, such as retinoic acid and analogs. These chimeric protein receptors (which were constructed in accordance with the teachings of the M. Pfahl. et al, article) also contain a a DNA binding domain, which is capable of binding to the "estrogen response element" (a DNA fragment) attached to the DNA plasmid coding for the CAT enzyme. […]

[5] = system: RAR and RXR receptor sites; test: RAR versus RXR agonist specificity (in words); assay type: cell-based; details: result in words
Experimental: The data obtained in the assay are evaluated and expressed as follows. For each test compound and for each subspecies of the RAR receptors a graph (or the mathematical equivalent of a graph) is prepared where the "counts per minute" (cpm) obtained in the scintillation counter measurements are plotted (on the y axis) against the concentration of the test compound. A similar graph (or mathematical equivalent) is prepared for retinoic acid. […] This is illustrated in the graphs of FIG. 1 and FIG. 3.
This reference compound is a known agonist of the RXRα receptor site.

HL-60 cdm-1 cells [6] = test: Assay 3: morphology of HL-60 cdm-1 cells at 4 hours, 48 hours, 6 days; assay type: cell-based, human; details: 3 μl of 1 mM stock in 3 ml
Experimental: HL-60 cdm-1 cells were plated in a 6-well tissue culture plate (Falcon) in 3 ml of media (RPMI-1640 containing bovine insulin 5 mg/L, human transferrin 5 mg/L and Na Selenite 5 μg/L) at a density of 1×10^5 cells/ml. Duplicate wells received either ethanol (3 μl) or 3 μl of a stock solution of AGN 191701 (Compound 1, 1 mM in ethanol). The cells were cultured in a humidified incubator (5% CO2) at 37° C. in the dark for either 4 hours, 48 hours or 6 days. At the indicated times an aliquot of the cells (50 μl) was sedimented onto a microscope slide using a cytospin centrifuge. Sedimented cells were air dried, fixed in absolute methanol, stained with a Diffquick reagent kit, mounted in permount and visualized by brightfield light microscopy.

[7] = system: chimeric RARβ receptor protein; test: Cationic Liposome Mediated Transfection Assay, RARβ; assay type: cell-based; details: Table 1; 50% of maximum CAT activity of all-trans retinoic acid; HeLa cells
Experimental: as §1, §2, §3

[8] = system: chimeric RARα receptor protein; test: Cationic Liposome Mediated Transfection Assay, RARα; assay type: cell-based; details: Table 1; 50% of maximum CAT activity of all-trans retinoic acid; HeLa cells
Experimental: as §1
In connection with this assay it is known that retinoic acid receptors arena member of the steroid/thyroid receptor super family and that they contain domains which are interchangeable within individual receptors. Thus, plasmids for chimeric retinoid receptors containing estrogen DNA binding domain and estrogen response element chloramphenicol acetyl-transferase enzyme are constructed and are grown in specific cultured bacteria. […]
as §3

[9] = system: human myeloid leukemia (HL-60 cdm1-1) cells; test: Induction of apoptotic cell death in HL-60 cdm-1 cells (general statement); assay type: cell-based; details: compared with ethanol control
Experimental: In the assay, the human myeloid leukemia (HL-60 cdm1-1) cells are grown in cultures, and an RXR agonist compound, such as Compound 1 (AGN 191701) or Compound 3 (AGN 191659), is added to the culture.

[10] = Table 1; 50% of maximum CAT activity of AGN 191440; HeLa cells; read-out: EC50 RXRα

EC50 [2] [nM]	EC50 [4, 10] [nM]	RAR / RXR agonist specificity [5]	EC50 [7] [nM]	EC50 [8] [nM]	Compound	DNA fragmentation (laddering) (HL-60 cdm-1 cells [1])	cell counts (HL-60 cdm-1 cells [3]) [mL⁻¹]	inspection of microscope slides (HL-60 cdm-1 cells [3])	cell morphology at 4 hours (HL-60 cdm-1 cells [6]; 4 hours)	cell morphology at 48 hours (HL-60 cdm-1 cells [6]; 48 hours)	cell morphology after 6 days (HL-60 cdm-1 cells [6]; 6 days)	EC50 ([4]; read-out: EC50 RXRα; Table 1; 50% of maximum CAT activity of AGN 191440; HeLa cells) [nM]	activity at RXR receptor sites [5]	apoptotic cell death [9]
1070	67	RXR specific agonist	3350		C/C(=C\c1cc(C(=O)O)cs1)c1cc2c(cc1C)C(C)(C)CCC2(C)C [Compound 1, 2-[(E)-2-(5,6,7,8-tetrahydro-3,5,5,8,8-pentamethylnaphthalen-2-yl)propen-1-yl]thiophene-4-carboxylic acid]	pattern of DNA fragmentation	70000	extensive cell death, almost all cells died	nuclear pyknosis and nuclear as well as cytoplasmic hyperchromicity with the formation of cytoplasmic extensions (large blobs)	extensive cell death with numerous hyperchromatic nuclear fragments either free in the media or contained with shrunken cell remnants	the same hyperchromatic nuclear remnants are detected but in addition there are scattered multinucleated syncitial cells			
364	448		101	3160	C/C(=C\c1ccc(C(=O)O)cc1)c1cc2c(cc1C)C(C)(C)CCC2(C)C [Compound 2, reference compound]									
153	11.2	pan-agonist	23	> 1000	C/C(=C\c1ccc(C(=O)O)s1)c1cc2c(cc1C)C(C)(C)CCC2(C)C [Compound 3, 2-[(E)-2-(5,6,7,8-tetrahydro-3,5,5,8-pentamethylnaphthalen-2-yl)propen-1-yl]-5-thiophenecarboxylic acid]									

Compound	EC50 [2] [nM]	EC50 [4, 10] [nM]	RAR / RXR agonist specificity [5]	EC50 [7] [nM]	EC50 [8] [nM]	DNA fragmentation (laddering) (HL-60 cdm-1 cells [1])	cell counts (HL-60 cdm-1 cells [3]) [mL⁻¹]	inspection of microscope slides (HL-60 cdm-1 cells [3])	cell morphology at 4 hours (HL-60 cdm-1 cells [6]; 4 hours)	cell morphology at 48 hours (HL-60 cdm-1 cells [6]; 48 hours)	cell morphology after 6 days (HL-60 cdm-1 cells [6]; 6 days)	EC50 ([4]; read-out: EC50 RXRα; Table 1; 50% of maximum CAT activity of AGN 191440; HeLa cells) [nM]	activity at RXR receptor sites [5]	apoptotic cell death [9]
C/C(=C\c1ccc(C(=O)O)cc1)c1ccc2c(c1)C(C)(C)CCC2(C)C [Compound 4, reference compound]			specific RAR agonist				460000	no difference between the control				> 10000	not active at RXR receptor sites	not active and not
